In publication PMC8969894 (Journal of medicinal chemistry, 2021):
Where two headings read alike, the source gives them in different places.

Legend:
[1] = tested on: panel of ~50 GPCRs (PDSP); settings: 10 μM; any of the receptors of the panel
Sprague-Dawley rats = assay: Locomotor activity; format: in vivo, rat; settings: 10 mg/kg i.p., 30 min, p > 0.05
[2] = In vivo pharmacokinetics in Sprague-Dawley rats; settings: male, rat, ip, 10 mg/kg
Aqueous solubility = format: physicochemical; settings: aqueous medium (not further specified)
[3] = rat liver microsomes; cited from earlier work
[4] = Rat plasma protein binding; format: in vitro ADME
MDCK-MDR1 cells = settings: cited from earlier work
[5] = Metabolic stability in rat liver microsomes; format: in vitro ADME

## O=C(NCCc1cccc(Cl)c1)Nc1ccc(Cl)cc1 [Compound 31, 3-(4-Chlorophenyl)-1-[2-(3-chlorophenyl)ethyl]urea]
[1]
  inhibition at PDSP panel receptors: < 50 % inhibition
Sprague-Dawley rats
  locomotion: did not significantly affect locomotion
[2]; brain
  CL/F: 121 mL/min/kg
  half-life: 54 min
[2]; plasma
  half-life: 37.8 min

## O=C(Nc1ccc(Cl)cc1)Nc1cccc(-c2cccc(N3CCCC3)n2)c1 [Compound 2, 1-(4-chlorophenyl)-3-{3-[6-(pyrrolidin-1-yl)pyridin-2-yl]phenyl}urea]
Aqueous solubility
  solubility: < 0.5 µM
[3]
  %Qh (percentage of hepatic blood flow): 72.6%
[4]
  fraction unbound: 0.001
MDCK-MDR1 cells
  Efflux BA/AB: 0.8
  Papp (A-to-B): 2.6 ± 0 x10^−6 cm/s
  Papp (B-to-A): 2.2 ± 0.1 x10^−6 cm/s

## Cc1cccc(CCNC(=O)Nc2ccc(Cl)cc2)c1 [Compound 17, 3-(4-Chlorophenyl)-1-[2-(3-methylphenyl)ethyl]urea]
[5]
  %Qh (percentage of hepatic blood flow): 72.2%

## O=C(NCCc1cccc(C(F)(F)F)c1)Nc1ccc(Cl)cc1 [Compound 34, 3-(4-Chlorophenyl)-1-{2-[3-(trifluoromethyl)phenyl]ethyl}urea]
[5]
  %Qh (percentage of hepatic blood flow): 69.8%
